Patent US11352350B2, “IRAK degraders and uses thereof” (Kymera Therapeutics, Inc., priority 2018, dated 2022)
Like-named read-outs stand apart in the source and are kept apart here.

Tests used:
IRAK4 = IRAK4 (Homo sapiens (Human), UniProt Q9NWZ3); assay: IRAK4 MSD degradation in OCI-LY10; assay type: cell-based; conditions: MSD
Method in brief: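 Remaining IRAK4 quantified by electrochemiluminescent MSD sandwich assay with two anti-IRAK4 antibodies. Compounds were dosed as 8 concentrations in 1:3 steps from a 1 to 10 μM final top on OCI-LY10 cells, incubated 4 to 24 h at 37° C. under 5% CO2. DC50 fitted with a three-parameter logistic curve.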

OCI-LY10 = assay: CTG Cell Viability Assay - OCI-LY10; assay type: cell-based, human; conditions: OCI-LY10, 4 days, read-out: CTG Cell Viability Assay - OCI-LY10: Average external-IC50
Protocol: Compound-mediated viability effect on OCI-LY10 or TMD8 was quantitatively determined using the CellTiter-Glo® Luminescent Cell Viability Assay kit from Promega (Catalog number G7570) following manufacturer's recommended procedures. […] Compounds were then added to the assay plate with final top concentration of 10 μM and 1:3 dilution series with total of 9 doses. The final DMSO concentration was normalized to 0.2%. The assay plates were incubated at 37° C. for 4 days under 5% CO2. Then the assay plate was equilibrated at room temperature for 10 minutes. […] The data was then analyzed by software Prism 7.0 from GraphPad and the dose response curves were fit using a three-parameter logistic equation to calculate IC50.

[1] = OCI-LY10, 4 hrs, read-out: IRAK4 MSD degradation in OCI-LY10 at 4 hrs: Average external-Abs DC50
[2] = OCI-LY10, 24 hrs, read-out: IRAK4 MSD degradation in OCI-LY10 at 24 hrs: Average external-Abs DC50

IRAK4, sequence (Q9NWZ3 whole entry): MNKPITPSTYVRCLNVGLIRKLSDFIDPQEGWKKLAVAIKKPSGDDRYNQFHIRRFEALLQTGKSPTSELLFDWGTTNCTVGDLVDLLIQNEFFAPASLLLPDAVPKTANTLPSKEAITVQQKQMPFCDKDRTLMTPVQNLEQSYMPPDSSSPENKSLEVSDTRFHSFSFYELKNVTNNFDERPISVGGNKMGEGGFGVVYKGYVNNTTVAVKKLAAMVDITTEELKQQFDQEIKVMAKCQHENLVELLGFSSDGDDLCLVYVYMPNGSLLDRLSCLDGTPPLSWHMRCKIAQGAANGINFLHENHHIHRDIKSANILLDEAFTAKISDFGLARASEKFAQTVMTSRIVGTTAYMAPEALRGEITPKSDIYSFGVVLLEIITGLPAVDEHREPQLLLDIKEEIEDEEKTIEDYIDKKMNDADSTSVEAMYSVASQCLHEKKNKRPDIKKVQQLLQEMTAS

Compound	DC50 (IRAK4; [1])	DC50 (IRAK4; [2])	IC50 (OCI-LY10)	IC50 (OCI-LY10; Homo sapiens, OCI-Ly10, 96 h)
COc1cc(C(=O)NCCCCN(C)C[C@H]2CC[C@H](n3cc(NC(=O)c4coc(-c5ccnc(NCC6CC6)c5)n4)c(C(F)F)n3)CC2)ccc1NC(=O)[C@@H]1N[C@@H](CC(C)(C)C)[C@](C#N)(c2ccc(Cl)cc2F)[C@H]1c1cccc(Cl)c1F [I-142]	> 1000 nM	> 1000 nM	> 1000 nM	–
COc1cc(C(=O)NCCCCCCN(C)C(=O)[C@H]2CC[C@H](n3cc(NC(=O)c4coc(-c5ccnc(NCC6CC6)c5)n4)c(C(F)F)n3)CC2)ccc1NC(=O)[C@@H]1N[C@@H](CC(C)(C)C)[C@](C#N)(c2ccc(Cl)cc2F)[C@H]1c1cccc(Cl)c1F [I-143]	> 1000 nM	> 1000 nM	> 1000 nM	–
COc1cc(C(=O)NCCOCCOCCN(C)C[C@H]2CC[C@H](n3cc(NC(=O)c4coc(-c5ccnc(NCC6CC6)c5)n4)c(C(F)F)n3)CC2)ccc1NC(=O)[C@@H]1N[C@@H](CC(C)(C)C)[C@](C#N)(c2ccc(Cl)cc2F)[C@H]1c1cccc(Cl)c1F [I-145]	> 1000 nM	> 1000 nM	> 1000 nM	–
CC(C)[C@@H](CS(=O)(=O)C(C)C)N1C(=O)[C@@](C)(CC(=O)N2CCC(CCN(C)C[C@H]3CC[C@H](n4cc(NC(=O)c5coc(-c6ccnc(NCC7CC7)c6)n5)c(C(F)F)n4)CC3)CC2)C[C@H](c2cccc(Cl)c2)[C@H]1c1ccc(Cl)cc1 [I-147]	> 1000 nM	> 1000 nM	–	> 1000 nM
Cn1c(=O)n(C2CCC(=O)NC2=O)c2ccc(CN3CCC(CC(=O)N4CCC(n5cc(NC(=O)c6coc(-c7ccnc(NCC8CC8)c7)n6)c(C(F)F)n5)CC4)CC3)cc21 (stereo not shown) [I-148]	100 to 1000 nM	–	–	100 to 500 nM
Cn1c(=O)n(C2CCC(=O)NC2=O)c2cccc(CCCOC3CCN(C(=O)[C@H]4CC[C@H](n5cc(NC(=O)c6cnn7ccc(N8CCOCC8)nc67)c(C(F)F)n5)CC4)CC3)c21 (stereo partly shown) [I-149]	< 10 nM	–	–	> 1000 nM
Cn1c(=O)n(C2CCC(=O)NC2=O)c2cccc(CN3CCC(CN4CCC(n5cc(NC(=O)c6cnn7ccc(N[C@@H]8CCCC[C@@H]8O)nc67)c(C(F)F)n5)CC4)CC3)c21 (stereo partly shown) [I-150]	10 to 100 nM	–	–	< 50 nM
O=C1CCC(n2c3cccc(CCCOC4CCN(C[C@H]5CC[C@H](n6cc(NC(=O)c7cnn8ccc(N9CCC(O)CC9)nc78)c(C(F)F)n6)CC5)CC4)c3c3cccnc32)C(=O)N1 (stereo partly shown) [I-151]	10 to 100 nM	–	–	> 1000 nM
O=C1CCC(N2C[C@@H](c3ccc(C#CCCOC4CCN(C[C@H]5CC[C@H](n6cc(NC(=O)c7cnn8ccc(N9CCC(O)CC9)nc78)c(C(F)F)n6)CC5)CC4)cc3)OC2=O)C(=O)N1 (stereo partly shown) [I-152]	10 to 100 nM	–	–	> 1000 nM
Cn1c(=O)n(C2CCC(=O)NC2=O)c2cccc(CCCOC3CCN(C[C@H]4CC[C@H](n5cc(NC(=O)c6cnn7ccc(N[C@@H]8CCCC[C@@H]8O)nc67)c(C(F)(F)F)n5)CC4)CC3)c21 (stereo partly shown) [I-153]	10 to 100 nM	–	–	> 1000 nM
CN(CCC1CCN(Cc2cccc3c2n(C)c(=O)n3C2CCC(=O)NC2=O)CC1)C[C@H]1CC[C@H](n2cc(NC(=O)c3cnn4ccc(N5C[C@H](N)CC(F)(F)C5)nc34)c(C(F)F)n2)CC1 (stereo partly shown) [I-155]	10 to 100 nM	–	–	> 1000 nM
Cn1c(=O)n(C2CCC(=O)NC2=O)c2cccc(CCCOC3CCN(C[C@H]4CC[C@H](n5cc(NC(=O)c6cnn7ccc(NCC8CC8)nc67)c(C(F)F)n5)CC4)CC3)c21 (stereo partly shown) [I-156]	10 to 100 nM	–	–	> 1000 nM
Cn1c(=O)n(C2CCC(=O)NC2=O)c2cccc(CCCOC3CCN(C[C@H]4CC[C@H](n5cc(NC(=O)c6cnn7ccc(N8CCC(O)CC8)nc67)c(C(F)F)n5)CC4)CC3)c21 (stereo partly shown) [I-157]	< 10 nM	–	–	> 1000 nM
Cn1c(=O)n(C2CCC(=O)NC2=O)c2cccc(CCCOCCC(=O)N3CCN([C@H]4CC[C@H](Nc5ncnc6ccc(C#N)cc56)CC4)CC3)c21 (stereo partly shown) [I-159]	> 1000 nM	> 1000 nM	–	> 1000 nM
Cc1ccc(-n2nc(C3CCN(C(=O)CCCCOCCCc4cccc5c4n(C)c(=O)n5C4CCC(=O)NC4=O)CC3)cc2NC(=O)c2cnn3cccnc23)nc1 (stereo not shown) [I-160]	> 1000 nM	> 1000 nM	–	> 1000 nM
CN[C@@H](C)C(=O)N[C@H](C(=O)N1Cc2cc(OCCOCCOCCNC[C@H]3CC[C@H](n4cc(NC(=O)c5coc(-c6ccnc(NCC7CC7)c6)n5)c(C(F)F)n4)CC3)ccc2C[C@H]1C(=O)N[C@@H]1CCCc2ccccc21)C(C)(C)C [I-161]	> 1000 nM	> 1000 nM	–	> 1000 nM
Cn1c(=O)n(C2CCC(=O)NC2=O)c2ccc(CCCOC3CCN(C[C@H]4CC[C@H](n5cc(NC(=O)c6cnn7ccc(N8CCNCC8)nc67)c(C(F)F)n5)CC4)CC3)cc21 (stereo partly shown) [I-162]	< 10 nM	–	–	> 1000 nM
Cn1c(=O)n(C2CCC(=O)NC2=O)c2ccc(CCCOCC3CCN(C[C@H]4CC[C@H](n5cc(NC(=O)c6cnn7ccc(N8CCNCC8)nc67)c(C(F)F)n5)CC4)CC3)cc21 (stereo partly shown) [I-163]	< 10 nM	–	–	> 1000 nM

Compound	DC50 (IRAK4; [1])	DC50 (IRAK4; [2])	IC50 (OCI-LY10)	IC50 (OCI-LY10; Homo sapiens, OCI-Ly10, 96 h)
Cn1c(=O)n(C2CCC(=O)NC2=O)c2cccc(CCCOCC3CCN(C[C@H]4CC[C@H](n5cc(NC(=O)c6cnn7ccc(N8CCNCC8)nc67)c(C(F)F)n5)CC4)CC3)c21 (stereo partly shown) [I-164]	< 10 nM	–	–	> 1000 nM
O=C1CCC(n2c(=O)oc3c(CCCOC4CCN(C[C@H]5CC[C@H](n6cc(NC(=O)c7cnn8ccc(N9CCNCC9)nc78)c(C(F)F)n6)CC5)CC4)cccc32)C(=O)N1 (stereo partly shown) [I-165]	10 to 100 nM	–	–	500 to 1000 nM
O=C1CCC(n2c(=O)oc3cc(CCCOC4CCN(C[C@H]5CC[C@H](n6cc(NC(=O)c7cnn8ccc(N9CCNCC9)nc78)c(C(F)F)n6)CC5)CC4)ccc32)C(=O)N1 (stereo partly shown) [I-166]	10 to 100 nM	–	–	> 1000 nM
CN(CCCOCCCc1cccc2c1C(=O)N(C1CCC(=O)NC1=O)C2=O)C[C@H]1CC[C@H](n2cc(NC(=O)c3coc(-c4ccnc(NCC5CC5)c4)n3)c(C(F)F)n2)CC1 (stereo partly shown) [I-167]	100 to 1000 nM	–	–	100 to 500 nM
CN(C[C@H]1CC[C@H](n2cc(NC(=O)c3coc(-c4ccnc(NCC5CC5)c4)n3)c(C(F)F)n2)CC1)C1CCN(Cc2cccc3c2C(=O)N(C2CCC(=O)NC2=O)C3=O)CC1 (stereo partly shown) [I-169]	< 10 nM	–	–	> 1000 nM
O=C1CCC(N2C(=O)c3cccc(NCCCCOC4CCN(C[C@H]5CC[C@H](n6cc(NC(=O)c7coc(-c8ccnc(NCC9CC9)c8)n7)c(C(F)F)n6)CC5)CC4)c3C2=O)C(=O)N1 (stereo partly shown) [I-170]	10 to 100 nM	–	–	< 50 nM
O=C1CCC(N2C(=O)c3cccc(CCCOC4CCN(C[C@H]5CC[C@H](n6cc(NC(=O)c7coc(-c8ccnc(NCC9CC9)c8)n7)c(C(F)F)n6)CC5)CC4)c3C2=O)C(=O)N1 (stereo partly shown) [I-171]	10 to 100 nM	–	–	100 to 500 nM
C=C(C)c1nn([C@H]2CC[C@H](CN3CCC(OCCCc4cccc5c4n(C)c(=O)n5C4CCC(=O)NC4=O)CC3)CC2)cc1NC(=O)c1cnn2ccc(NCC3CC3)nc12 (stereo partly shown) [I-172]	100 to 1000 nM	–	–	> 1000 nM
C=C(C)c1nn([C@H]2CC[C@H](CN(C)C3CCN(Cc4cccc5c4n(C)c(=O)n5C4CCC(=O)NC4=O)CC3)CC2)cc1NC(=O)c1cnn2ccc(NCC3CC3)nc12 (stereo partly shown) [I-173]	100 to 1000 nM	–	–	> 1000 nM
CN(CCOCCOCCOC12CC3CC(CC(C3)C1)C2)C[C@H]1CC[C@H](n2cc(NC(=O)c3coc(-c4ccnc(NCC5CC5)c4)n3)c(C(F)F)n2)CC1 [I-174]	> 1000 nM	> 1000 nM	–	> 1000 nM
CN(CCOCCOCCOC12CC3CC(CC(C3)C1)C2)C[C@H]1CC[C@H](n2cc(NC(=O)c3cnn4ccc(N5CCNCC5)nc34)c(C(F)F)n2)CC1 [I-175]	> 1000 nM	> 1000 nM	–	> 1000 nM
Cn1c(=O)n(C2CCC(=O)NC2=O)c2ccc(CCCOC3CCN(C[C@H]4CC[C@H](n5cc(NC(=O)c6cnn7ccc(N8CCOCC8)nc67)c(C(F)F)n5)CC4)CC3)cc21 (stereo partly shown) [I-176]	10 to 100 nM	–	–	> 1000 nM
Cn1c(=O)n(C2CCC(=O)NC2=O)c2cccc(CN3CCC(CCN4CCC(n5cc(NC(=O)c6cnn7ccc(N8CCOCC8)nc67)c(C(F)F)n5)CC4)CC3)c21 (stereo not shown) [I-177]	< 10 nM	–	–	100 to 500 nM
Cn1c(=N)n(C2CCC(=O)NC2=O)c2ccc(CCCOCCCN3CCC(n4cc(NC(=O)c5cnn6ccc(N7CCOCC7)nc56)c(C(F)F)n4)CC3)cc21 (stereo not shown) [I-179]	100 to 1000 nM	–	–	> 1000 nM
Cn1c(=O)n(C2CCC(=O)NC2=O)c2cccc(CCCOCCCN3CCC(n4cc(NC(=O)c5cnn6ccc(N7CCNCC7)nc56)c(C(F)F)n4)CC3)c21 (stereo not shown) [I-180]	10 to 100 nM	–	–	> 1000 nM
Cn1c(=O)n(C2CCC(=O)NC2=O)c2ccc(CN3CCC(CCN4CCC(n5cc(NC(=O)c6coc(-c7ccnc(NCC8CC8)c7)n6)c(C(F)F)n5)CC4)CC3)cc21 (stereo not shown) [I-181]	100 to 1000 nM	–	–	100 to 500 nM
Cn1c(=O)n(C2CCC(=O)NC2=O)c2ccc(CN3CCC(CN4CCC(n5cc(NC(=O)c6coc(-c7ccnc(NCC8CC8)c7)n6)c(C(F)F)n5)CC4)CC3)cc21 (stereo not shown) [I-182]	100 to 1000 nM	–	–	> 1000 nM
Cn1c(=O)n(C2CCC(=O)NC2=O)c2cccc(CCN3CC4(CCN(C[C@H]5CC[C@H](n6cc(NC(=O)c7cnn8ccc(N9CCOCC9)nc78)c(C(F)F)n6)CC5)CC4)C3)c21 (stereo partly shown) [I-183]	< 10 nM	< 10 nM	–	< 50 nM
